Source: patent US6964975B2, “Isoxazole and thiazole compounds and use thereof as medicine” (Kirin Beer Kabushiki Kaisha, priority 2000, dated 2005)

molecular target: T1, human EDG-2 (Homo sapiens, UniProt Q92633); assay: Inhibitory activity on LPA-induced elevation of intracellular Ca2+ level; type: cell-based; details: 50% inhibition of elevation of intracellular Ca2+ level by LPA, human EDG-2/HepG2 cells, fura-2
T1 construct: cDNA of the cloned human EDG-2 was introduced into pEFneo, which is an animal expression vector; expressed in transfected cells; host or cells: HepG2
Description: The human EDG-2 expression plasmid was introduced into HepG2 cells by electroporation. After the introduction, culturing was continued while exchanging selective media every 3 to 4 days, thereby obtaining an expressed colony. Regarding these cells, Ca-influx and cell-proliferation by LPA, level of [^3H] LPA binding and the like were inspected to select a cell line which highly expresses human EDG-2 (human EDG-2/HepG2).
Human EDG-2/HepG2 cells were washed and then suspended in 0.1% BSA (bovine serum albumin)-containing HEPES buffer. A fluorescent indicator, fura-2/AM (Wako Pure Chemical Industries, Ltd.), was added, and the mixture was shaken at room temperature for 45 minutes so that the indicator is included in the cell. Cells were washed again and then suspended in 0.1% BSA-containing HEPES buffer, and intracellular Ca^2+ level was assayed using FDSS2000 (Hamamatsu Photonics). […] Each test compound was added to the cell suspension followed by the addition of LPA, thereby examining the inhibitory activity of the test compound on the function of LPA for elevating the intracellular Ca level. […] The lower the IC50 value, the higher the antagonistic activity on the LPA receptor.

T1 sequence (Q92633 whole entry): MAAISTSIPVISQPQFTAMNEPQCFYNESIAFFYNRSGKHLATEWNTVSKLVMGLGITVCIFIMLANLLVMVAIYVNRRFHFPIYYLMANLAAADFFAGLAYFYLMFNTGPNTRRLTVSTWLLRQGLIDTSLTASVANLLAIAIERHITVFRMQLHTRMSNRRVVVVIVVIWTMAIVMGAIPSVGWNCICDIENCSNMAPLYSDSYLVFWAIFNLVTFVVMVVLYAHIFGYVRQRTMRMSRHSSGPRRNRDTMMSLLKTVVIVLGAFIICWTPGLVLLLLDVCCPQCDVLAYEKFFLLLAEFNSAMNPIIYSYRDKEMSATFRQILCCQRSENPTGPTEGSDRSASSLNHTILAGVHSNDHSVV

`Cc1onc(-c2ccccc2)c1NC(=O)OCc1ccccc1` [Compound 2, Benzyl N-(5-methyl-3-phenyl-4-isoxazolyl)carbamate] and `Cc1noc(-c2ccccc2)c1NC(=O)OCc1ccccc1` [Compound 7, Benzyl N-(3-methyl-5-phenyl-4-isoxazolyl)carbamate] cannot be ordered by IC50: 30 to 100 µM for the first, 30 µM for the second.

`Cc1noc(-c2ccccc2)c1NC(=O)OC(C)c1ccccc1Cl` (stereo not drawn) [Compound 3, 1-(2-Chlorophenyl)ethyl N-(3-methyl-5-phenyl-4-isoxazolyl)carbamate] and `Cc1noc(-c2ccccc2)c1NC(=O)O[C@H](C)c1ccccc1Cl` [Compound 18, (1R)-1-(2-Chlorophenyl)ethyl N-(3-methyl-5-phenyl-4-isoxazolyl)carbamate] are the same in IC50: 3 µM for the first, 3 µM for the second.

First: Cc1ccc(-c2noc(C)c2NC(=O)OC(C)c2ccccc2Cl)cc1 (stereo not drawn) [Compound 5, 1-(2-Chlorophenyl)ethyl N-[5-methyl-3-(4-methylphenyl)-4-isoxazolyl]carbamate]
Second: Cc1onc(-c2ccc(F)cc2)c1NC(=O)OC(C)c1ccccc1Cl (stereo not drawn) [Compound 16, 1-(2-Chlorophenyl)ethyl N-[3-(4-fluorophenyl)-5-methyl-4-isoxazolyl]carbamate]
The IC50 of the first is higher: 10 to 30 µM for the first, 3 to 10 µM for the second. The second is the more potent here.

`Cc1onc(-c2ccc([N+](=O)[O-])cc2)c1NC(=O)OC(C)c1ccccc1Cl` (stereo not drawn) [Compound 6, 1-(2-Chlorophenyl)ethyl N-[5-methyl-3-(4-nitrophenyl)-4-isoxazolyl]carbamate] and `Cc1onc(-c2ccc(CO)cc2)c1NC(=O)OC(C)c1ccccc1Cl` (stereo not drawn) [Compound 8, 1-(2-Chlorophenyl)ethyl N-[3-[4-(hydroxymethyl)phenyl]-5-methyl-4-isoxazolyl]carbamate] cannot be ordered by IC50: 10 µM for the first, 3 to 10 µM for the second.

First: Cc1onc(-c2ccccc2)c1NC(=O)O[C@H](C)c1ccccc1 [Compound 9, (1R)-1-Phenylethyl N-(5-methyl-3-phenyl-4-isoxazolyl)carbamate]
Second: Cc1onc(-c2ccccc2)c1NC(=O)O[C@@H](C)c1ccccc1 [Compound 10, (1S)-1-Phenylethyl N-(5-methyl-3-phenyl-4-isoxazolyl)carbamate]
The IC50 of the first is lower: 10 to 30 µM for the first, at least 100 µM for the second.

`Cc1onc(-c2ccc(OC(F)(F)F)cc2)c1NC(=O)OC(C)c1ccccc1Cl` (stereo not drawn) [Compound 11, 1-(2-Chlorophenyl)ethyl N-[5-methyl-3-[4-(trifluoromethoxy)phenyl]-4-isoxazolyl]carbamate] and `Cc1onc(-c2cccc(C(F)(F)F)c2)c1NC(=O)OC(C)c1ccccc1Cl` (stereo not drawn) [Compound 15, 1-(2-Chlorophenyl)ethyl N-[5-methyl-3-[3-(trifluoromethyl)phenyl]-4-isoxazolyl]carbamate] cannot be ordered by IC50: 10 to 30 µM for the first, 30 µM for the second.

`Cc1onc(-c2ccccc2)c1NC(=O)OC(C)c1ccccc1` (stereo not drawn) [Compound 12, 1-Phenylethyl N-(5-methyl-3-phenyl-4-isoxazolyl)carbamate] and `Cc1ccccc1C(C)OC(=O)Nc1c(-c2ccccc2)noc1C` (stereo not drawn) [Compound 14, 1-(2-Methylphenyl)ethyl N-(5-methyl-3-phenyl-4-isoxazolyl)carbamate] fall in the same range of IC50: 30 to 100 µM for the first, 30 to 100 µM for the second.

Going from `Cc1onc(-c2cccc(Br)c2)c1NC(=O)OC(C)c1ccccc1Cl` (stereo not drawn) [Compound 13, 1-(2-Chlorophenyl)ethyl N-[3-(3-bromophenyl)-5-methyl-4-isoxazolyl]carbamate] to `Cc1onc(-c2cccc(F)c2)c1NC(=O)OC(C)c1ccccc1Cl` (stereo not drawn) [Compound 21, 1-(2-Chlorophenyl)ethyl N-[3-(3-fluorophenyl)-5-methyl-4-isoxazolyl]carbamate], the IC50 falls from 30 µM to 3 µM (10-fold). The second is the more potent here.

`Cc1onc(-c2ccccc2)c1NC(=O)O[C@H](C)c1ccccc1Cl` [Compound 17, (1R)-1-(2-Chlorophenyl)ethyl N-(5-methyl-3-phenyl-4-isoxazolyl)carbamate] and `Cc1onc(-c2ccccc2)c1NC(=O)OC(C)c1ccccc1F` (stereo not drawn) [Compound 19, 1-(2-Fluorophenyl)ethyl N-(5-methyl-3-phenyl-4-isoxazolyl)carbamate] cannot be ordered by IC50: 3 µM for the first, 3 to 10 µM for the second.
